Assay results taken from article PMC10002220, “In Vivo Reversal of P-Glycoprotein-Mediated Drug Resistance in a Breast Cancer Xenograft and in Leukemia Models Using a Novel, Potent, and Nontoxic Epicatechin EC31” (International Journal of Molecular Sciences, 2023).

Legend:
LCC6 cells = experiment: Drug resistance level: IC50 of anticancer drugs in LCC6; type: cell-based; details: Homo sapiens, LCC-6, 72 h; 3 days incubation
Description: (§1) In the Western blot membrane, the total P-gp and β-actin expression in each lane was quantified with ImageJ software. The relative P-gp expression was an intensity ratio of P-gp band relative to the β-actin band. The relative P-gp expression of the resistant cell line relative to its respective wild type was presented as a bar chart. The plasma membrane P-gp levels of LCC6MDR and K562/P-gp relative to their wild types were determined through flow cytometry using antihuman P-gp-PE antibodies. (B) LCC6MDR and LCC6. (C) K562/P-gp and K562. (D) the drug resistance levels of three P-gp-overexpressing cell lines and their wild types were studied. The 3 pairs of cell lines were incubated with anticancer drugs paclitaxel (PTX), doxorubicin (DOX), and vincristine (VCR) for 3 days, and the % of cell survival was then determined. Their IC50 (nM) values were calculated using Prism 5.0. RF (relative fold) was a ratio of IC50 of anticancer drugs in a P-gp-overexpressing cell line relative to its respective wild type. N = 3 independent experiments. […] All cell lines were counterstained with DAPI. (E) LCC6 and LCC6MDR, (F) P388 and P338ADR, and (G) K562 and K562/P-gp. Bar = 8 µm. / = not determined.

LCC6MDR cells = experiment: Drug resistance level: IC50 of anticancer drugs in LCC6MDR; type: cell-based, human
Description: as §1

K562 cells = experiment: Drug resistance level: IC50 of anticancer drugs in K562; type: cell-based; details: Homo sapiens, K562, 72 h; 3 days incubation
Description: as §1

P388ADR leukemia = experiment: In vivo efficacy in reversing DOX resistance in murine leukemia P388ADR model; set-up: species or system B6D2F1 mice; details: DOX 3 mg/kg i.p. alone
Description: (§2) Irradiated BDF1 mice were i.p. inoculated with P388ADR cells, which caused mouse leukemia. Irradiated NOD/SCID mice were i.v. inoculated with K562/P-gp cells, which caused human leukemia. The mice were randomized and treated with (1) control treatment (no treatment), (2) DOX alone, and (3) EC31 + DOX. Treatments were given as indicated by the arrows. The number of mice deaths in each treatment group was recorded every day. (A) The percent survival of mice infected with P388ADR. (B) The percent survival of mice infected with K562/P-gp. The mice median survival days and the increased lifespan (ILS) were analyzed with Log-rank (Mantel–COX) test in Prism 5.0. Student’s paired t test was conducted as indicated. ** represents p < 0.01, and *** represents p < 0.001. N.S. = not significant.
About 1 × 10^6 cells of P388ADR were i.p. inoculated in male B6D2F1 mice aged 5–7 weeks old. There were 3 groups: (1) control group with no treatment, (2) DOX (3 mg/kg i.p.) alone, and (3) cotreatment with EC31 (60 mg/kg i.p.) being injected 1 h prior to DOX (3 mg/kg i.p.) administration. In group 2, DOX was i.p. injected on days 2, 6, 10, 14, and 18 only. In group 3, EC31 was i.p. injected on days 1, 2, 5, 6, 9, 10, 13, 14, 17, and 18, and DOX was i.p. injected on days 2, 6, 10, 14, and 18. Before each treatment, 1.5 mg/mL of DOX was freshly prepared using PBS. Mice survival and body weight were monitored during the study period.

K562/P-gp leukemia = experiment: In vivo efficacy in reversing DOX resistance in human leukemia K562/P-gp model; set-up: species or system NOD/SCID mice
Description: as §2
The mice were randomly distributed into 3 groups: (1) control group (no treatment), (2) DOX (0.9 mg/kg i.v.) alone, and (3) cotreatment with EC31 (30 mg/kg i.p.) being injected 1 h prior to DOX (0.9 mg/kg i.v.) administration. EC31 and DOX were injected on days 7, 11, 19, 23, and 27. Before each treatment, 0.2 mg/mL of DOX was freshly prepared using PBS. Mice survival and body weight were monitored during the study period.

K562/P-gp cells = experiment: Drug resistance level: IC50 of anticancer drugs in K562/P-gp; type: cell-based, human
Description: as §1

P388ADR cells = experiment: Drug resistance level: IC50 of anticancer drugs in P388ADR; type: cell-based, mouse
Description: as §1

P388 cells = experiment: Drug resistance level: IC50 of anticancer drugs in P388; type: cell-based; details: Mus musculus, P388, 72 h; 3 days incubation
Description: as §1

## COc1cccc2c1C(=O)c1c(O)c3c(c(O)c1C2=O)C[C@@](O)(C(=O)CO)C[C@@H]3O[C@H]1C[C@H](N)[C@H](O)[C@H](C)O1 [DOX, doxorubicin]
LCC6 cells
  IC50: 800 ± 100 nM
LCC6MDR cells; Homo sapiens, LCC6MDR, 72 h, 3 days incubation
  IC50: 10300 nM
LCC6MDR cells; IC50 in LCC6MDR relative to LCC6
  RF (relative fold): 12.9
K562 cells
  IC50: 312 ± 41.6 nM
P388ADR leukemia
  median survival: 16.5 days
K562/P-gp leukemia; DOX 0.9 mg/kg i.v. alone
  median survival time: 32.0 days
K562/P-gp leukemia; DOX alone compared to untreated
  ILS% (increase in lifespan): 10.3%
K562/P-gp cells; Homo sapiens, K562, 72 h, 3 days incubation
  IC50: 1930 ± 126 nM
K562/P-gp cells; IC50 in K562/P-gp relative to K562
  RF (relative fold): 6.2
P388ADR cells; IC50 in P388ADR relative to P388
  RF (relative fold): 35.8
P388ADR cells; Mus musculus, P388/ADR, 72 h, 3 days incubation
  IC50: 1790 ± 139 nM
P388 cells
  IC50: 50 ± 1.8 nM
